Source: patent EP2818471A1, “Nitrogen bicyclic compounds as inhibitors for Scyl1 and Grk5” (Max-Planck-Gesellschaft zur Förderung der Wissenschaften …, priority 2013, dated 2014)

Test system: beta-TC6 cells
Assay: Insulin HTRF assay, relative activity Ar normalized to sunitinib
Format: cell-based
Conditions: Mus musculus, normalized to positive control sunitinib (5 µM = 100%), Table 10
How it was run: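 Relative activity Ar was scaled between 0% and 100% controls, with sunitinib at 5 µM f.c. as reference. Insulin released by beta-TC6 cells was quantified by sandwich HTRF (Eu-cryptate/XL665 antibodies, 120 min RT). Cells had been seeded 24 or 48 h, then treated 2–4 h at 37°C in induction buffer, 0.5% DMSO.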

Compound | Emax [%]
FC(F)(F)Oc1cccc(-c2ccc3nnc(-c4ccncc4)n3c2)c1 [compound 178, 3-(4-pyridyl)-6-[3-(trifluoromethoxy)phenyl]-[1,2,4]triazolo[4,3-a]pyridine] | 20 to 50
OCc1ccc(-c2ccc3nnc(-c4ccncc4)n3c2)cc1 [compound 179, [4-[3-(4-pyridyl)-[1,2,4]triazolo[4,3-a]pyridin-6-yl]phenyl]methanol] | 20 to 50
FC(F)(F)c1cccc(C#Cc2ccc3nnc(-c4ccncc4)n3c2)c1 [compound 180, 3-(4-pyridyl)-6-[2-[3-(trifluoromethyl)phenyl]ethynyl]-[1,2,4]triazolo[4,3-a]pyridine] | 10 to 20
c1ccc(Oc2cccc(-c3ccc4nnc(-c5ccncc5)n4c3)c2)cc1 [compound 181, 6-(3-phenoxyphenyl)-3-(4-pyridyl)-[1,2,4]triazolo[4,3-a]pyridine] | 20 to 50
CN(C)c1ccc(-c2ccc3nnc(-c4cccnc4)n3c2)cc1 [compound 182, N,N-dimethyl-4-[3-(3-pyridyl)-[1,2,4]triazolo[4,3-a]pyridin-6-yl]aniline] | 50 to 100
CC(C)c1cccc(-c2ccc3nnc(-c4cccnc4)n3c2)c1 [compound 183, 6-(3-isopropylphenyl)-3-(3-pyridyl)-[1,2,4]triazolo[4,3-a]pyridine] | 50 to 100
Clc1ccccc1-c1ccc2nnc(-c3cccnc3)n2c1 [compound 184, 6-(2-chlorophenyl)-3-(3-pyridyl)-[1,2,4]triazolo[4,3-a]pyridine] | 50 to 100
COc1ccc(-c2nnc3ccc(-c4cccc(N(C)C)c4)cn23)cc1OC [compound 185, 3-[3-(3,4-dimethoxyphenyl)-[1,2,4]triazolo[4,3-a]pyridin-6-yl]-N,N-dimethyl-aniline] | 50 to 100
COc1ccc(-c2nnc3ccc(-c4ccc(S(C)(=O)=O)cc4)cn23)cc1OC [compound 186, 3-(3,4-dimethoxyphenyl)-6-(4-methylsulfonylphenyl)-[1,2,4]triazolo[4,3-a]pyridine] | 10 to 20
COc1ccc(-c2nnc3ccc(-c4cccc(F)c4)cn23)cc1OC [compound 187, 3-(3,4-dimethoxyphenyl)-6-(3-fluorophenyl)-[1,2,4]triazolo[4,3-a]pyridine] | ≥ 100
COc1ccc(-c2nnc3ccc(-c4cccc(C(=O)N(C)C)c4)cn23)cc1OC [compound 188, 3-[3-(3,4-dimethoxyphenyl)-[1,2,4]triazolo[4,3-a]pyridin-6-yl]-N,N-dimethyl-benzamide] | 50 to 100
COc1ccc(-c2nnc3ccc(C#Cc4ccncc4)cn23)cc1OC [compound 190, 3-(3,4-dimethoxyphenyl)-6-[2-(4-pyridyl)ethynyl]-[1,2,4]triazolo[4,3-a]pyridine] | 50 to 100
COc1ccc(-c2nnc3ccc(-c4cccs4)cn23)cc1OC [compound 191, 3-(3,4-dimethoxyphenyl)-6-(2-thienyl)-[1,2,4]triazolo[4,3-a]pyridine] | 50 to 100
COc1cncc(-c2ccc3nnc(-c4cccc(OC(F)(F)F)c4)n3c2)c1 [compound 192, 6-(5-methoxy-3-pyridyl)-3-[3-(trifluoromethoxy)phenyl]-[1,2,4]triazolo[4,3-a]pyridine] | 50 to 100
CS(=O)(=O)c1cccc(-c2ccc3nnc(-c4cccc(OC(F)(F)F)c4)n3c2)c1 [compound 193, 6-(3-methylsulfonylphenyl)-3-[3-(trifluoromethoxy)phenyl]-[1,2,4]triazolo[4,3-a]pyridine] | 50 to 100
COc1cccc(C#Cc2ccc3nnc(-c4cccc(OC(F)(F)F)c4)n3c2)c1 [compound 194, 6-[2-(3-methoxyphenyl)ethynyl]-3-[3-(trifluoromethoxy)phenyl]-[1,2,4]triazolo[4,3-a]pyridine] | 20 to 50
FC(F)(F)Oc1cccc(-c2nnc3ccc(-c4cccs4)cn23)c1 [compound 195, 6-(2-thienyl)-3-[3-(trifluoromethoxy)phenyl]-[1,2,4]triazolo[4,3-a]pyridine] | 50 to 100
FC(F)(F)Oc1cccc(-c2nnc3ccc(C#Cc4ccccc4)cn23)c1 [compound 196, 6-(2-phenylethynyl)-3-[3-(trifluoromethoxy)phenyl]-[1,2,4]triazolo[4,3-a]pyridine] | 20 to 50
Nc1cccc(-c2ccc3nnc(-c4cccc(Cl)c4)n3c2)c1 [compound 197, 3-[3-(3-chlorophenyl)-[1,2,4]triazolo[4,3-a]pyridin-6-yl]an iline] | 50 to 100
Clc1cccc(-c2nnc3ccc(-c4ccc5c(c4)OCO5)cn23)c1 [compound 198, 6-(1,3-benzodioxol-5-yl)-3-(3-chlorophenyl)-[1,2,4]triazolo[4,3-a]pyridine] | 50 to 100
Clc1cccc(-c2nnc3ccc(-c4ccncc4)cn23)c1 [compound 199, 3-(3-chlorophenyl)-6-(4-pyridyl)-[1,2,4]triazolo[4,3-a]pyridine] | 50 to 100
Clc1cccc(-c2nnc3ccc(-c4cccnc4)cn23)c1 [compound 200, 3-(3-chlorophenyl)-6-(3-pyridyl)-[1,2,4]triazolo[4,3-a]pyridine] | 50 to 100

Compound | Emax [%]
CC(=O)Nc1ccc(-c2ccc3nnc(-c4cccc(Cl)c4)n3c2)cc1 [compound 202, N-[4-[3-(3-chlorophenyl)-[1,2,4]triazolo[4,3-a]pyridin-6-yl]phenyl]acetamide] | 20 to 50
Clc1cccc(-c2nnc3ccc(-c4cncnc4)cn23)c1 [compound 203, 3-(3-chlorophenyl)-6-pyrimidin-5-yl-[1,2,4]triazolo[4,3-a]pyridine] | 20 to 50
Clc1cccc(-c2nnc3ccc(-c4ncccn4)cn23)c1 [compound 204, 3-(3-chlorophenyl)-6-pyrimidin-2-yl-[1,2,4]triazolo[4,3-a]pyridine] | 10 to 20
Clc1cccc(-c2nnc3ccc(-c4cncc5ccccc45)cn23)c1 [compound 205, 4-[3-(3-chlorophenyl)-[1,2,4]triazolo[4,3-a]pyridin-6-yl]isoquinoline] | 50 to 100
N#Cc1ccc(-c2ccc3nnc(-c4cccc(O)c4)n3c2)cc1 [compound 206, 4-[3-(3-hydroxyphenyl)-[1,2,4]triazolo[4,3-a]pyridin-6-yl]benzonitrile] | 50 to 100
Oc1cccc(-c2nnc3ccc(-c4ccc(F)cc4)cn23)c1 [compound 208, 3-[6-(4-fluorophenyl)-[1,2,4]triazolo[4,3-a]pyridin-3-yl]phenol] | 50 to 100
Oc1cccc(-c2nnc3ccc(-c4cccc5ncccc45)cn23)c1 [compound 209, 3-[6-(5-quinolyl)-[1,2,4]triazolo[4,3-a]pyridin-3-yl]phenol] | 20 to 50
COc1cc(-c2ccc3nnc(-c4cccc(C(F)(F)F)c4)n3c2)cc(OC)c1OC [compound 210, 3-[3-(trifluoromethyl)phenyl]-6-(3,4,5-trimethoxyphenyl)-[1,2,4]triazolo[4,3-a]pyridine] | 50 to 100
CN(C)CCCNC(=O)c1ccc(-c2ccc3nnc(-c4cccc(C(F)(F)F)c4)n3c2)cc1 [compound 211, N-[3-(dimethylamino)propyl]-4-[3-[3-(trifluoromethyl)phenyl]-[1,2,4]triazolo[4,3-a]pyridin-6-yl]benzamide] | 20 to 50
O=C(c1ccc(-c2ccc3nnc(-c4cccc(C(F)(F)F)c4)n3c2)cc1)N1CCOCC1 [compound 212, morpholino-[4-[3-[3-(trifluoromethyl)phenyl]-[1,2,4]triazolo[4,3-a]pyridin-6-yl]phenyl]methanone] | 20 to 50
CN(C)C(=O)c1ccc(-c2ccc3nnc(-c4cccc(C(F)(F)F)c4)n3c2)cc1 [compound 213, N,N-dimethyl-4-[3-[3-(trifluoromethyl)phenyl]-[1,2,4]triazolo[4,3-a]pyridin-6-yl]benzamide] | 20 to 50
Nc1ccc(-c2ccc3nnc(-c4cccc(C(F)(F)F)c4)n3c2)cn1 [compound 214, 5-[3-[3-(trifluoromethyl)phenyl]-[1,2,4]triazolo[4,3-a]pyridin-6-yl]pyridin-2-amine] | 20 to 50
COc1cc(-c2nnc3ccc(-c4ccc(N5CCN(C)CC5)cc4)cn23)ccc1O [compound 215, 2-methoxy-4-[6-[4-(4-methylpiperazin-1-yl)phenyl]-[1,2,4]triazolo[4,3-a]pyridin-3-yl]phenol] | 20 to 50
COc1ccc(-c2ccc3nnc(-c4ccc(O)c(OC)c4)n3c2)cn1 [compound 216, 2-methoxy-4-[6-(6-methoxy-3-pyridyl)-[1,2,4]triazolo[4,3-a]pyridin-3-yl]phenol] | 50 to 100
COc1cc(-c2nnc3ccc(-c4cccc(F)c4)cn23)ccc1O [compound 217, 4-[6-(3-fluorophenyl)-[1,2,4]triazolo[4,3-a]pyridin-3-yl]-2-methoxy-phenol] | 50 to 100
COc1cc(-c2nnc3ccc(-c4ccccc4C)cn23)ccc1O [compound 218, 2-methoxy-4-[6-(o-tolyl)-[1,2,4]triazolo[4,3-a]pyridin-3-yl]phenol] | 50 to 100
COc1cc(-c2ccc3nnc(-c4ccoc4)n3c2)cc(OC)c1OC [compound 219, 3-(3-furyl)-6-(3,4,5-trimethoxyphenyl)-[1,2,4]triazolo[4,3-a]pyridine] | 50 to 100
COc1ccc(-c2ccc3nnc(-c4ccoc4)n3c2)cc1 [compound 220, 3-(3-furyl)-6-(4-methoxyphenyl)-[1,2,4]triazolo[4,3-a]pyridine] | 50 to 100
c1csc(-c2ccc3nnc(-c4ccoc4)n3c2)c1 [compound 221, 3-(3-furyl)-6-(2-thienyl)-[1,2,4]triazolo[4,3-a]pyridine] | 50 to 100
N#Cc1cccc(-c2nnc3ccc(-c4ccccn4)cn23)c1 [compound 222, 3-[6-(2-pyridyl)-[1,2,4]triazolo[4,3-a]pyridin-3-yl]benzonitrile] | 20 to 50
COc1ccc(-c2ccc3nnc(-c4ccccc4C)n3c2)cc1OC [compound 223, 6-(3,4-dimethoxyphenyl)-3-(o-tolyl)-[1,2,4]triazolo[4,3-a]pyridine] | 50 to 100
